Data taken from paper PMC9000610, “Computational Analysis and Biological Activities of Oxyresveratrol Analogues, the Putative Cyclooxygenase-2 Inhibitors” (Molecules, 2022).

Tests used:
in vitro = assay type: cell-based, human; settings: human
Method: (§1) The effect of oxyresveratrol and its derivatives on the viability of normal human fibroblasts (MRC-5 cells) were determined by MTT assay. MRC-5 cells were diluted to 2 × 10^5 cells/mL with a complete medium. The cells (100 µL) were seeded in the wells of the sterile 96-well cell culture plate. After incubation at 37 °C in CO2 for 24 h, the cells were treated with different concentrations of sample compounds (100 µL) and doxorubicin as a positive control (100 µL). After incubation for 48 h, MTT solution (20 µL of 5 mg/mL) was added to each well and incubated for 3 h. After that, the complete medium was removed. Then, the cells were lysed with DMSO (100 µL). The yellow MTT dye was reduced by succinic dehydrogenase in the mitochondria of viable cells to purple formazan crystals. After that, absorbance (OD) was measured by a microplate reader at 570 nm. The percentage of cytotoxicity was determined with Equation (1) below. (1) Cell viability(%)=OD of treated cells/OD of control cells×100^

human COX-2 = biological target: T1, human COX-2 (Homo sapiens, UniProt P35354); test: Human COX-2 inhibitor screening assay kit (Cayman); assay type: biochemical; settings: mean ± standard deviation of three replicates; read-out: COX-2 Inhibition IC50
T1 construct: purchased Cayman Chemicals USA Item no; 701080
T1 sequence (P35354 18-604): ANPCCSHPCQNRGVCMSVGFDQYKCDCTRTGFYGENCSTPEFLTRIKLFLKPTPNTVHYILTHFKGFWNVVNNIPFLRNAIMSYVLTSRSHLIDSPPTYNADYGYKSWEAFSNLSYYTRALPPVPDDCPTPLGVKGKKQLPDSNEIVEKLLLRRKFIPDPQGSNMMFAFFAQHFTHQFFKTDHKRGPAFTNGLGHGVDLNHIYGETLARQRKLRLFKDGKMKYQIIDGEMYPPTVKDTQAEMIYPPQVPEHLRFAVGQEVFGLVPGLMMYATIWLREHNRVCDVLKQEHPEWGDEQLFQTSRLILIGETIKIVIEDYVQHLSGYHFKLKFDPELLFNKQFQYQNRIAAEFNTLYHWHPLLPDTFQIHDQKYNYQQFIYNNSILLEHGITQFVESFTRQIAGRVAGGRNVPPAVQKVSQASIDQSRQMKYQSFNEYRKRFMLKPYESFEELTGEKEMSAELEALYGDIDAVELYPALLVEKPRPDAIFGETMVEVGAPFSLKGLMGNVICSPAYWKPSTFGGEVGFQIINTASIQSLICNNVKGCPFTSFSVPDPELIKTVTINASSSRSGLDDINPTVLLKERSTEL
Method: COX-2 enzyme and tested compounds at various concentrations were prepared in the reaction buffer (0.1 M Tris-HCl, pH 8.0, containing 5 mM EDTA and 2 mM phenol) containing heme. […] The quenched reactions were incubated at room temperature for 5 min to produce prostaglandin F2α. Dilutions were made with the ELISA buffer and measured by using a PGE2 ELISA kit according to the manufacturer’s instruction.

MRC-5 cells = test: in vitro; assay type: cell-based, human
Method: as §1

Compound | CC50 at 48 h (in vitro) | IC50 (human COX-2) | cytotoxicity to normal cell lines (in words) (MRC-5 cells) | melting point
Oc1cc(O)cc(/C=C/c2ccc(O)cc2O)c1 [Compound 1, trans-2,3′,4,5′-tetrahydroxystilbene] | 57.5 ± 2.34 µM | 14.5 ± 2.04 µM |  | 
COc1cc(C=Cc2ccc(OC)cc2OC)cc(OC)c1 [Compound 2, 2,3′,4,5′-tetramethoxystilbene] | 118 ± 2.69 µM | 25 ± 2.34 µM |  | 
CC(=O)Oc1cc(C=Cc2ccc(OC(C)=O)cc2OC(C)=O)cc(OC(C)=O)c1 [Compound 3, 2,3′,4,5′-tetraacetoxystilbene] | 77.7 ± 3.07 µM | 23 ± 2.02 µM |  | 
Oc1cc(O)cc(CCc2ccc(O)cc2O)c1 [Compound 4, 2,3′,4,5′-tetrahydroxybibenzyl] | 106 ± 3.86 µM | 11.5 ± 1.54 µM | very low cytotoxicity | 
COc1cc(CCc2ccc(OC)cc2OC)cc(OC)c1 [Compound 5, 2,3′,4,5′-tetramethoxybibenzyl] | 130 ± 3.04 µM | 18.1 ± 2.07 µM |  | 44.7 to 46.8 °C
CC(=O)Oc1cc(CCc2ccc(OC(C)=O)cc2OC(C)=O)cc(OC(C)=O)c1 [Compound 6, 2,3′,4,5′-tetraacetoxybibenzyl] | 121 ± 2.37 µM | 19 ± 2.01 µM |  | 72.3 to 73.3 °C
COc1cc(OC)cc(C(F)C(OC)c2ccc(OC)cc2OC)c1 (stereo not drawn) [Compound 8] | 53.04 ± 0.22 µM |  |  | 
CC(=O)Oc1cc(OC(C)=O)cc(C(F)C(F)c2ccc(OC(C)=O)cc2OC(C)=O)c1 (stereo not drawn) [Compound 9] | 11.7 ± 1.35 µM |  |  | 
COc1cccc2c1C(=O)c1c(O)c3c(c(O)c1C2=O)C[C@@](O)(C(=O)CO)C[C@@H]3O[C@H]1C[C@H](N)[C@H](O)[C@H](C)O1 [doxorubicin, reference compound] | > 100 µM |  |  | 
